Reference: patent US12180507B2, “Engineered platforms to stabilize both hepatocytes and endothelial cells in vitro” (Colorado State University Research Foundation, priority 2015, dated 2024)
Structures can show the parent of a compound that is named as a salt.

Experiments:
[1] = established in previous literature; basis for dosing up to 100xCmax; read-out: Cmax (the maximum plasma concentration); cited from earlier work
LSECs = details: known from the literature; cited from earlier work
[2] = test system: tri-cultures of hepatocytes with 3T3-J2 fibroblasts and either liver sinusoidal endothelial cells (LSECs) or human umbilical vein endothelial cells (HUVECs); assay: Drug toxicity screen: albumin secretions in hepatocyte/fibroblast/endothelia tri-cultures; details: azathioprine 100x and 50xCmax, dacarbazine 100xCmax, monocrotaline 100xCmax; 6 days, serum-free media; tri-cultures with LSECs or HUVECs compared with hepatocyte/3T3-J2 co-cultures
Method: Tissue culture polystyrene 24-well plates (Corning® Life Sciences) were coated for 2 hours with 25 μg/mL rat tail collagen-I (Corning® Life Sciences) and rinsed twice with sterile water. […] Cryopreserved PHHs after processing were seeded at a density of 6.67×10^5 cells/mL into collagen micropatterned wells (300 μL/well). After allowing 4-5 hours for cellular attachment and spreading onto collagen-coated islands, wells were washed 3× in DMEM base medium to remove unattached cells, leaving ˜3×10^4 PHHs per well in 24-well format (˜90 islands/well). Cultures in the co-planar arrangement were backfilled with fibronectin (2 μg/cm^2) before endothelia and 3T3-J2 fibroblasts were seeded 12-18 hours later and allowed to fill the remaining area surrounding the PHH islands. The hepatocyte:endothelial ratio was chosen to match the physiologic ratio of 5 hepatocytes (3×10^4 per well) to 1 endothelium (6×10^3 per well), and 3T3-J2 fibroblasts were added to bring the total stromal cell count to 9×10^4 cells per well. Cultures in the layered configuration were seeded with 9×10^4 3T3-J2 fibroblasts per well 12-18 hours after seeding PHHs to fill in remaining areas, overlaid with 250 μg/mL Matrigel® (Corning® Life Sciences), and then seeded with 6×10^3 endothelia per well the following day. […]
Hepatic morphological, functionality, and health assessments. The morphology of MPCCs was monitored using an EVOS® FL cell imaging system (Life Technologies) with standard 4×, 10×, and 20× phase contrast objectives. CYP3A4 activity in MPCCs was measured using the luminescence-based luciferin-IPA assay from Promega® (Madison, WI) per manufacturer's instructions. CYP2A6 was evaluated by treating the cultures with 50 μM coumarin for 1 hour and measuring the production of the metabolite 7-hydroxycoumarin. Albumin secretions were assessed with an enzyme-linked immunosorbent assay (ELISA) with horseradish peroxidase detection and 3,3′,5,5′-tetramethylbenzidine as the substrate. Urea production was measured via a colorimetric endpoint analysis with diacetylmonoxime, acid, and heat (Stanbio® Labs, Boerne, TX). […]

SMILES	Cmax [1] [µM]	Toxicity specific to LSECs rather than hepatocytes (LSECs)	Albumin secretions (drug toxicity), normalized to DMSO-only controls [2]
Cn1cnc([N+](=O)[O-])c1Sc1ncnc2nc[nH]c12 [azathioprine]	3.61	toxicity specific to LSECs rather than hepatocytes	more responsive to drug toxicity
CCN(CC)CCOc1ccc(C(=C(Cl)c2ccccc2)c2ccccc2)cc1 [clomiphene citrate]		toxicity specific to LSECs rather than hepatocytes	
CN(C)/N=N/c1[nH]cnc1C(N)=O [dacarbazine]	43.9	toxicity specific to LSECs rather than hepatocytes	more responsive to drug toxicity
C[C@H]1C(=O)O[C@@H]2CCN3CC=C(COC(=O)[C@](C)(O)[C@]1(C)O)[C@H]23 [monocrotaline]	10	toxicity specific to LSECs rather than hepatocytes	more responsive to drug toxicity
